Measurements published in patent US20090258069A1, “Delivery of LFA-1 antagonists to the gastrointestinal system” (priority 2008, published 2009).
“And” between values parts separate entries of the source, which are not always exact repeats. Identical values can stand only once.

What was measured:
[1] = test system: Keratoconjunctivitis Sicca (KCS); assay: Canine keratoconjunctivitis sicca (KCS) study, Schirmer tear test and conjunctival biopsy; format: in vivo, dog; conditions: for Schirmer Tear Test Results (OD), Mean: Dog #1 not included; for Schirmer Tear Test Results (OS), Mean: Dog #7 not included; for Schirmer Tear Test Results (OS), individual dogs: left eye; for Schirmer Tear Test Results (OD), individual dogs: right eye
Excerpt: If dogs had been treated with topical CsA or tacrolimus in the previous six months, they were not enrolled. […] Animals were subjected to an ocular examination once during the initial visit and during five visits over sixteen weeks of the study (Weeks, 2, 4, 8, 12 and 16). The last OE was approximately four weeks after the last dose of Compound 12 and after one month of CsA treatment. The adnexa and anterior portions of both eyes were examined using an indirect opthalmoscope. The eyes were dilated with a mydriatic when applicable, to allow evaluation of the lens and fundus, including the retina. An evaluation using a modified McDonald-Shaddock scoring system was performed in conjunction with the slitlamp ocular examinations at each interval. […] One strip of STT paper was used for each eye for each interval. […] The length, in mm, of wetting below the notch of the paper was recorded. Conjunctival biopsies were taken at the initial (pretreatment) visit and the Week 12 visit. The second biopsy was taken more lateral (approx. 1 mm) to the initial biopsy. Following appropriate preparation a small conjunctival biopsy was taken from the ventral fornix of each eye.

[2] = test system: attachment of Jurkat cells to ICAM-1; assay: T-cell adhesion assay using Jurkat cells; format: cell-based, human
Experimental: A reported LFA-1 antagonist was used as the positive control.
Jurkat cells were labeled with an 8 μM solution of BCECF-AM (2′,7′-bis-(2-carboxyethyl)-5-(and -6)-carboxyfluorescein) in growth media at room temperature for 15 minutes. […] Non-adherent cells were removed by washing and centrifugation at 100 g for 1 minute. Adherent cells were determined as adherent fluorescent units on a fluorescent plate reader.

in vivo = conditions: topical or ocular
[3] = Single dose ocular and IV ADME with [^14C]-Compound 12 in dogs; format: in vivo, dog
Excerpt: Following an ocular dose, the highest average [^14C]-Compound 12 levels were detected in anterior ocular tissues (see FIG. 16). […] No differences in results from male and female dogs were observed.

[4] = test system: Chinese hamster ovary (CHO) cells; assay: In vitro chromosomal aberration assay in CHO cells; format: cell-based; conditions: with and without metabolic activation, except single toxic dose 3500 μg/mL, 3-hour
Excerpt: The biological relevance of this response is equivocal due to cytotoxicity.

[5] = Pilot mini-pig dermal study; format: in vivo; conditions: minipig, plasma, topical, 10 mg/cm^2 of 1% formulation over approximately 50 cm^2; all groups; below LLOQ; read-out: Plasma levels
Excerpt: (§1) One pig/dose formulation was used. In-life PK analysis was completed.

mini-pigs = assay: Pilot mini-pig dermal study; format: in vivo; conditions: DMSO, gel, ointment, lotion at 1%; TID 7 days, 10 mg/cm^2 on about 50 cm^2
Excerpt: as §1

[6] = Plasma PK after a single topical ocular instillation (dogs and rabbits)
healthy adults = assay: Phase 1 clinical trial of Compound 12 Ophthalmic Solution, safety and tolerability; format: in vivo, human
Excerpt: The objectives of the trial were to measure safety and tolerability, and pharmacokinetics in tear and plasma. The dosing schedule (OU; Oculus Uterque (each eye or both eyes)) was divided into 3 periods, each separated by a 72-hour wash out interval: once/day×1 day (drug one eye; placebo fellow eye), twice/day×10 days, and thrice/day×10 days, 14-day observation. Slit lamp examination of the eye, BCVA (Best Corrected Visual Acuity), STTs (Schirmer Tear Test), TBUT (Tear Break-Up Time), IOP (Intraocular pressure) were assessed at screening and the beginning and end of each period. For each cohort, masked safety data was reviewed by a Safety Committee prior to allowing dose escalation of the next cohort. A total of 2856 doses (102 drops/subject) were administered over 1148 total subject study days (41 study days/subject) in 56 eyes. All subjects in all cohorts completed the study, and no study drug doses were missed.

rabbits = assay: Single dose ocular tolerance in rabbits; format: in vivo, rabbit; conditions: (10%)
Pilot rat dermal study = format: in vivo; conditions: 1% lotion, ointment, gel, DMSO; TID 7 days, 10 mg/cm^2 on about 6 cm^2
Experimental: The safety and tolerability of prototypical dermal formulations (1% lotion, ointment, and gel) were assessed on rats given TID for seven consecutive days—approximately 6 cm^2 with 10 mg/cm^2.

CD-1 (ICR) BR mice = assay: In vivo mouse bone marrow micronucleus assay; conditions: repeated IV administrations
[7] = in vivo
rats [8] = assay: CNS effects in rats, single bolus IV injection; format: in vivo, rat
Excerpt: No effect on any other parameters was observed.

rats [9] = assay: Respiratory function in rats, single IV bolus, head-out plethysmograph; format: in vivo, rat; conditions: any dose
dogs = assay: 13-week ocular toxicity study in dogs with 4-week recovery (with TK); conditions: (3%)
[10] = Week 1, 1% solution (Formulation 15) 0.35 mg/eye TID, one grid row per dog
[11] = Week 16, Compound 12 stopped at week 12, then 4 weeks CsA 0.2% ointment TID
[12] = Weeks 1-12 of Compound 12 administration
[13] = in vivo, topical or ocular, 1.05 mg

SMILES: CS(=O)(=O)c1cccc(C[C@H](NC(=O)c2c(Cl)cc3c(c2Cl)CCN(C(=O)c2ccc4ccoc4c2)C3)C(=O)O)c1 [Compound 12]
- Schirmer Tear Test Results (OD), Mean ([1]; Week 1): 5.5 mm
- Schirmer Tear Test Results (OS), Mean ([1]; Week 1): 4.2 mm
- Schirmer Tear Test Results (OS), individual dogs [1, 10]: 9 mm (2×) and 18 mm and 0 mm (3×) and 7 mm
- Schirmer Tear Test Results (OD), individual dogs [1, 10]: 8 mm (2×) and 6 mm (2×) and 15 mm and 0 mm and 5 mm
- Schirmer Tear Test Results (OD), Mean ([1]; Week 2): 7.8 mm
- Schirmer Tear Test Results (OS), Mean ([1]; Week 2): 4.8 mm
- Schirmer Tear Test Results (OS), individual dogs ([1]; Week 2, 1% solution TID): 4 mm and 0 mm (2×) and 14 mm and 3 mm and 8 mm
- Schirmer Tear Test Results (OD), individual dogs ([1]; Week 2, 1% solution TID): 10 mm and 2 mm (2×) and 18 mm and 11 mm (3×)
- Schirmer Tear Test Results (OD), Mean ([1]; Week 4): 7.0 mm
- Schirmer Tear Test Results (OS), Mean ([1]; Week 4): 6.7 mm
- Schirmer Tear Test Results (OS), individual dogs ([1]; Week 4, 1% solution TID): 14 mm (2×) and 0 mm (2×) and 7 mm and 5 mm
- Schirmer Tear Test Results (OD), individual dogs ([1]; Week 4, 1% solution TID): 15 mm and 2 mm and 12 mm and 0 mm and 5 mm and 10 mm (2×)
- Schirmer Tear Test Results (OD), Mean ([1]; Week 8): 8.5 mm
- Schirmer Tear Test Results (OS), Mean ([1]; Week 8): 6.5 mm
- Schirmer Tear Test Results (OS), individual dogs ([1]; Week 8, 1% solution TID): 8 mm (2×) and 19 mm and 0 mm and 2 mm and 17 mm and 6 mm
- Schirmer Tear Test Results (OD), individual dogs ([1]; Week 8, 1% solution TID): 17 mm and 1 mm and 16 mm and 8 mm and 7 mm (2×) and 11 mm
- Schirmer Tear Test Results (OD), Mean ([1]; Week 12): 8.8 mm
- Schirmer Tear Test Results (OS), Mean ([1]; Week 12): 8.7 mm
- Schirmer Tear Test Results (OS), individual dogs ([1]; Week 12, 1% solution TID): 8 mm (2×) and 18 mm and 3 mm and 7 mm and 15 mm and 4 mm
- Schirmer Tear Test Results (OD), individual dogs ([1]; Week 12, 1% solution TID): 16 mm and 0 mm and 13 mm (2×) and 8 mm and 7 mm and 9 mm
- Schirmer Tear Test Results (OS), Mean ([1]; Week 16 (after 4 weeks CsA)): 11.0 mm
- Schirmer Tear Test Results (OS), individual dogs [1, 11]: 17 mm and 18 mm and 3 mm and 5 mm and 16 mm and 7 mm and 19 mm
- Schirmer Tear Test Results (OD), individual dogs [1, 11]: 18 mm and 12 mm (2×) and 8 mm (3×) and 22** mm
- Maximum-Minimum Analysis, maximal change in STT, OD, per dog [1, 12]: 3 mm and 8 mm (3×) and −4 mm and 5 mm
- Maximum-Minimum Analysis, maximal change in STT, OS, per dog [1, 12]: 7 mm (2×) and 11 mm and 3 mm and 10 mm and 6 mm
- Histopathological evaluation of conjunctival biopsies before and after treatment ([1]; pretreatment vs Week 12): attenuation of lymphocyte accumulation
- Schirmer test scores over pretreatment ([1]; week 12): Significant improvement
- Jurkat cell attachment to ICAM-1 ([2]; 30 min preincubation, 1 h at 37° C.): inhibition of Jurkat cell attachment with increasing dose
- dose response curve and IC50, Jurkat cell attachment ([2]; vs positive control): comparable to that of the known direct competitive LFA-1 antagonist
- AUC (in vivo; 0.105 mg): 5.19 ± 5.39 ng·h/mL
- Cmax (in vivo; 0.105 mg): 11.7 ± 8.8 ng/mL
- AUC (in vivo; 0.35 mg): 7.35 ± 1.52 ng·h/mL
- Cmax (in vivo; 0.35 mg): 13.1 ± 2.12 ng/mL
- levels in conjunctiva/cornea ([3]; dog, for 16 hrs): greater than 1 micromolar
- metabolites in pooled plasma, urine and fecal homogenate ([3]; up to 168 hrs post-dose, 3 mg/eye or 3 mg/dog): no metabolites detected
- structural chromosomal aberrations in CHO cells [4]: negative
- concentration at 7 days [5]: < 0.5 ng/mL
- toxicity, dermal formulations (mini-pigs): No toxicity
- AUC [6, 13]: 22.9 ± 10.1 ng·h/mL
- Cmax [6, 13]: 38.9 ± 19.7 ng/mL
- time of decline of plasma concentration to baseline levels ([6]; topical ocular instillation): about 4 hours
- time of maximum plasma concentration post-dose ([6]; topical ocular instillation): about 0.25 hrs
- deaths, discontinuations, serious or severe AEs considered related to drug (healthy adults; 0.1%, 0.3%, 1% and 5% dose strengths, any dose regimen): No deaths, discontinuations, serious or severe ocular or non-ocular AEs
- overall safety and tolerability, topical ocular instillation (healthy adults; dose strengths up to 5% TID): safe and well-tolerated
- localized ocular irritation or infection (healthy adults; human, in vivo): no evidence of localized ocular irritation or infection
- Blood pressure, heart rate, respiratory rate, temperature, body weight, and EKG results (healthy adults; throughout the trial): within normal ranges
- Total lymphocyte count, CD3, CD4, and CD8 cell counts (healthy adults; throughout the trial): within normal ranges with no evidence of lymphocyte or neutrophil suppression
- NOAEL (rabbits): 3.5 mg/eye/3× per day
- serum level after dermal dosing (Pilot rat dermal study): detectable in serum
- mouse bone marrow micronucleus assay (CD-1 (ICR) BR mice): negative
- ocular dose absorbed into the systemic circulation [7]: 6.9-32%
- CNS observation (rats [8]; 10.0 mg/kg IV, 1 minute to 6 hours postdose in 2/6 animals at each time point): Transient miosis
- effect on any other CNS parameters (rats [8]; single bolus IV): No effect
- respiratory function (tidal volume, respiration rate, minute volume) (rats [9]): No adverse changes
- NOAEL (dogs): 1.05 mg/eye/3× per day
